Patent publication EP1171107B1, “USE OF A PHARMACEUTICAL COMPOSITION IN THE MANUFACTURE OF A MEDICAMENT FOR THE TREATMENT OF PATHOLOGICAL CONDITIONS OF THE EYE CAUSED BY BACTERIA, VIRUSES, FUNGI, YEASTS AND PROTOZOA” (Dr. GERHARD MANN chem.-pharm. Fabrik GmbH, priority 1999, dated 2000)

How the values were obtained:
Format in all cases: cell-based
S.epidermidis [1] = experiment: Quantitative germ count (re-isolation, surface method) after inoculating the test preparation; conditions: Ausgangskeimzahl 2,1 x 10^5 KBE/ml
Source text: (§1) Escherichia (E.coli) Staphylococcus (S.aureus) Streptococcus (Sc.) Pneumoniae Pseudomonas (P.aeruginosa) Staphylococcus (S. epidermidis) Haemophilus (H. influenzae)
(§2) Die verschiedenen Testkeime wurde jeweils aus einem Lyophilisat in NaCl-Peptonpuffer homogenisiert und auf Caseinpepton-Sojymehlpepton. (Caso-) Agar (Fa. bioMérieux; Art. Nr. 43019) bez. Kochblut-Agar (Fa. bioMérieux; Art. Nr. 43109) subkultiviert. Die Teststämme wurden vor Versuchsbeginn durch Erstellen eines biochemischen Profils mittels ATB/Vitek-System (Fa. bioMérieux, Nürtingen) auf Reinheit und Identität überprüft.
(§3) Die Ausgangskeimzahl wurde im Oberflächenverfahren mit Hilfe eines Spiralplaters (Fa. Meintrup, Lähden) ermittelt und ist im einzelnen den Tabellen 1-12 zu entnehmen.
(§4) Die verschiedenen Testsubstanzen a. bis j. wurden jeweils zu 5 ml in sterile Zentrifugenröhrchen abgefüllt und mit ca. 10^5 KBE^*/ml (* = koloniebildende Einheiten) der oben genannten Testkeime kontaminiert. Pro Substanz wurde für jeden Testkeim und jede zu prüfende Testzeit ein separater Ansatz angeimpft, d.h.10 Testsubstanzen zu jeweils 7 Testzeiten und 6 Testkeime (= insgesamt 502 Testansätze). Nach 2, 6, 8, 24, 32, 48 und 72 Stunden wurde dann der jeweilige Testansatz 10 Minuten bei 3000 rpm abzentrifugiert. Der Überstand wurde dekantiert und das Pellet in 5 ml NaCl Peptonpuffer aufgenommen und resuspendiert. Die Suspension wurde erneut 10 Minuten bei 3000 rpm abzentrifugiert und 5 ml NaCl-Peptonpuffer aufgenommen und mittels Vortex homogenisiert.
(§5) Die anschließende Keimzahlbestimmung erfolgte im Oberflächenverfahren durch Ausspiralisieren eines […] Aliquots auf Caso-Agar bzw. für H. influenzae auf Kochblut-Agar. Die Platten wurden bei 33±2°C für max. 4 Tage bebrütet. Die Nachweisgrenze des Verfahrens liegt bei 100 KBE/ml.

P.aeruginosa [2] = experiment: as above; conditions: Ausgangskeimzahl 2,7 x 10^5 KBE/ml
Source text: as §1, §2, §3, §4, §5

Sc. pneumoniae [3] = experiment: Qualitative examination: enrichment of the inoculated test preparation in broth
Source text: as §1, §2
as §4, with “Nach 2, 6, 8, 24, 32, 48 und 72 Stunden wurde dann der jeweilige Testansatz 10 Minuten bei 3000 rpm abzentrifugiert.” left out
(§6) Jeweils 2 ml der Testansätze wurden in 20 ml Caso-Bouillon oder für H. influenzae, in Fildes-Medium der Firma Becton Dickinson, ARt. Nr. 0349-739, angereichert und ebenfalls maximal 4 Tage bei 33± 2°C bebrütet. Ein negatives Ergebnis der Anreicherung belegt die Elimination der inokulierten Keime.

E.coli [4] = experiment: as above
Source text: as §1, §2
as §4, with “Nach 2, 6, 8, 24, 32, 48 und 72 Stunden wurde dann der jeweilige Testansatz 10 Minuten bei 3000 rpm abzentrifugiert.” left out
as §6

S.aureus = experiment: as above
Source text: as §1, §2
as §4, with “Nach 2, 6, 8, 24, 32, 48 und 72 Stunden wurde dann der jeweilige Testansatz 10 Minuten bei 3000 rpm abzentrifugiert.” left out
as §6

S.epidermidis [5] = experiment: as above
Source text: as §1, §2
as §4, with “Nach 2, 6, 8, 24, 32, 48 und 72 Stunden wurde dann der jeweilige Testansatz 10 Minuten bei 3000 rpm abzentrifugiert.” left out
as §6

H.influenzae [6] = experiment: Quantitative germ count (re-isolation, surface method) after inoculating the test preparation; conditions: Ausgangskeimzahl 2,8 x 10^5 KBE/ml
Source text: as §1, §2, §3
as §4, with “Nach 2, 6, 8, 24, 32, 48 und 72 Stunden wurde dann der jeweilige Testansatz 10 Minuten bei 3000 rpm abzentrifugiert.” left out
as §5

Sc. pneumoniae [7] = experiment: as above; conditions: Ausgangskeimzahl 3,7 x 10^5 KBE/ml
Source text: as §1, §2, §3
as §4, with “Nach 2, 6, 8, 24, 32, 48 und 72 Stunden wurde dann der jeweilige Testansatz 10 Minuten bei 3000 rpm abzentrifugiert.” left out
as §5

E.coli [8] = experiment: as above; conditions: Ausgangskeimzahl 2,7 x 10^5 KBE/ml
Source text: as §1, §2, §3
as §4, with “Nach 2, 6, 8, 24, 32, 48 und 72 Stunden wurde dann der jeweilige Testansatz 10 Minuten bei 3000 rpm abzentrifugiert.” left out
as §5

H.influenzae [9] = experiment: Qualitative examination: enrichment of the inoculated test preparation in broth
Source text: as §1, §2, §4, §6

P.aeruginosa [10] = experiment: as above
Source text: as §1, §2, §4, §6

CC1COc2c(N3CCN(C)CC3)c(F)cc3c(=O)c(C(=O)O)cn1c23 (stereo not shown) [Ofloxacin 0,3 Gew.-%, Ofloxacin, reference compound]
Ergebnis der Reisolierung (in KBE/ml) (S.epidermidis [1]; 2 h after inoculation): <100 KBE/ml | Ergebnis der Reisolierung (in KBE/ml) (S.epidermidis [1]; 4 h after inoculation): <100 KBE/ml | Ergebnis der Reisolierung (in KBE/ml) (S.epidermidis [1]; 6 h after inoculation): <100 KBE/ml | Ergebnis der Reisolierung (in KBE/ml) (S.epidermidis [1]; 8 h after inoculation): <100 KBE/ml | Ergebnis der Reisolierung (in KBE/ml) (S.epidermidis [1]; 24 h after inoculation): <100 KBE/ml | Ergebnis der Reisolierung (in KBE/ml) (S.epidermidis [1]; 32 h after inoculation): <100 KBE/ml | Ergebnis der Reisolierung (in KBE/ml) (S.epidermidis [1]; 48 h after inoculation): <100 KBE/ml | Ergebnis der Reisolierung (in KBE/ml) (S.epidermidis [1]; 72 h after inoculation): <100 KBE/ml | Ergebnis der Reisolierung (in KBE/ml) (P.aeruginosa [2]; 2 h after inoculation): <100 KBE/ml | Ergebnis der Reisolierung (in KBE/ml) (P.aeruginosa [2]; 4 h after inoculation): <100 KBE/ml | Ergebnis der Reisolierung (in KBE/ml) (P.aeruginosa [2]; 6 h after inoculation): <100 KBE/ml | Ergebnis der Reisolierung (in KBE/ml) (P.aeruginosa [2]; 8 h after inoculation): <100 KBE/ml | Ergebnis der Reisolierung (in KBE/ml) (P.aeruginosa [2]; 24 h after inoculation): <100 KBE/ml | Ergebnis der Reisolierung (in KBE/ml) (P.aeruginosa [2]; 32 h after inoculation): <100 KBE/ml | Ergebnis der Reisolierung (in KBE/ml) (P.aeruginosa [2]; 48 h after inoculation): <100 KBE/ml | Ergebnis der Reisolierung (in KBE/ml) (P.aeruginosa [2]; 72 h after inoculation): <100 KBE/ml | Ergebnis der Reisolierung qualitiativ (+/-) nach Anreicherung (Sc. pneumoniae [3]; 2 h after inoculation): - | Ergebnis der Reisolierung qualitiativ (+/-) nach Anreicherung (Sc. pneumoniae [3]; 4 h after inoculation): + | Ergebnis der Reisolierung qualitiativ (+/-) nach Anreicherung (Sc. pneumoniae [3]; 6 h after inoculation): - | Ergebnis der Reisolierung qualitiativ (+/-) nach Anreicherung (Sc. pneumoniae [3]; 8 h after inoculation): - | Ergebnis der Reisolierung qualitiativ (+/-) nach Anreicherung (Sc. pneumoniae [3]; 24 h after inoculation): - | Ergebnis der Reisolierung qualitiativ (+/-) nach Anreicherung (Sc. pneumoniae [3]; 32 h after inoculation): - | Ergebnis der Reisolierung qualitiativ (+/-) nach Anreicherung (Sc. pneumoniae [3]; 48 h after inoculation): - | Ergebnis der Reisolierung qualitiativ (+/-) nach Anreicherung (Sc. pneumoniae [3]; 72 h after inoculation): - | Ergebnis der Reisolierung qualitiativ (+/-) nach Anreicherung (E.coli [4]; 2 h after inoculation): - | Ergebnis der Reisolierung qualitiativ (+/-) nach Anreicherung (E.coli [4]; 4 h after inoculation): - | Ergebnis der Reisolierung qualitiativ (+/-) nach Anreicherung (E.coli [4]; 6 h after inoculation): - | Ergebnis der Reisolierung qualitiativ (+/-) nach Anreicherung (E.coli [4]; 8 h after inoculation): - | Ergebnis der Reisolierung qualitiativ (+/-) nach Anreicherung (E.coli [4]; 24 h after inoculation): - | Ergebnis der Reisolierung qualitiativ (+/-) nach Anreicherung (E.coli [4]; 32 h after inoculation): - | Ergebnis der Reisolierung qualitiativ (+/-) nach Anreicherung (E.coli [4]; 48 h after inoculation): - | Ergebnis der Reisolierung qualitiativ (+/-) nach Anreicherung (E.coli [4]; 72 h after inoculation): - | Ergebnis der Reisolierung qualitiativ (+/-) nach Anreicherung (S.aureus; 2 h after inoculation): + | Ergebnis der Reisolierung qualitiativ (+/-) nach Anreicherung (S.aureus; 4 h after inoculation): + | Ergebnis der Reisolierung qualitiativ (+/-) nach Anreicherung (S.aureus; 6 h after inoculation): + | Ergebnis der Reisolierung qualitiativ (+/-) nach Anreicherung (S.aureus; 8 h after inoculation): - | Ergebnis der Reisolierung qualitiativ (+/-) nach Anreicherung (S.aureus; 24 h after inoculation): - | Ergebnis der Reisolierung qualitiativ (+/-) nach Anreicherung (S.aureus; 32 h after inoculation): - | Ergebnis der Reisolierung qualitiativ (+/-) nach Anreicherung (S.aureus; 48 h after inoculation): - | Ergebnis der Reisolierung qualitiativ (+/-) nach Anreicherung (S.aureus; 72 h after inoculation): - | Ergebnis der Reisolierung qualitiativ (+/-) nach Anreicherung (S.epidermidis [5]; 2 h after inoculation): + | Ergebnis der Reisolierung qualitiativ (+/-) nach Anreicherung (S.epidermidis [5]; 4 h after inoculation): + | Ergebnis der Reisolierung qualitiativ (+/-) nach Anreicherung (S.epidermidis [5]; 6 h after inoculation): + | Ergebnis der Reisolierung qualitiativ (+/-) nach Anreicherung (S.epidermidis [5]; 8 h after inoculation): - | Ergebnis der Reisolierung qualitiativ (+/-) nach Anreicherung (S.epidermidis [5]; 24 h after inoculation): - | Ergebnis der Reisolierung qualitiativ (+/-) nach Anreicherung (S.epidermidis [5]; 32 h after inoculation): - | Ergebnis der Reisolierung qualitiativ (+/-) nach Anreicherung (S.epidermidis [5]; 48 h after inoculation): - | Ergebnis der Reisolierung qualitiativ (+/-) nach Anreicherung (S.epidermidis [5]; 72 h after inoculation): - | Ergebnis der Reisolierung (in KBE/ml) (H.influenzae [6]; 2 h after inoculation): <100 KBE/ml | Ergebnis der Reisolierung (in KBE/ml) (H.influenzae [6]; 4 h after inoculation): <100 KBE/ml | Ergebnis der Reisolierung (in KBE/ml) (H.influenzae [6]; 6 h after inoculation): <100 KBE/ml | Ergebnis der Reisolierung (in KBE/ml) (H.influenzae [6]; 8 h after inoculation): <100 KBE/ml | Ergebnis der Reisolierung (in KBE/ml) (H.influenzae [6]; 24 h after inoculation): <100 KBE/ml | Ergebnis der Reisolierung (in KBE/ml) (H.influenzae [6]; 32 h after inoculation): <100 KBE/ml | Ergebnis der Reisolierung (in KBE/ml) (H.influenzae [6]; 48 h after inoculation): <100 KBE/ml | Ergebnis der Reisolierung (in KBE/ml) (H.influenzae [6]; 72 h after inoculation): <100 KBE/ml | Ergebnis der Reisolierung (in KBE/ml) (Sc. pneumoniae [7]; 2 h after inoculation): <100 KBE/ml | Ergebnis der Reisolierung (in KBE/ml) (Sc. pneumoniae [7]; 4 h after inoculation): <100 KBE/ml | Ergebnis der Reisolierung (in KBE/ml) (Sc. pneumoniae [7]; 6 h after inoculation): <100 KBE/ml | Ergebnis der Reisolierung (in KBE/ml) (Sc. pneumoniae [7]; 8 h after inoculation): <100 KBE/ml | Ergebnis der Reisolierung (in KBE/ml) (Sc. pneumoniae [7]; 24 h after inoculation): <100 KBE/ml | Ergebnis der Reisolierung (in KBE/ml) (Sc. pneumoniae [7]; 32 h after inoculation): <100 KBE/ml | Ergebnis der Reisolierung (in KBE/ml) (Sc. pneumoniae [7]; 48 h after inoculation): <100 KBE/ml | Ergebnis der Reisolierung (in KBE/ml) (Sc. pneumoniae [7]; 72 h after inoculation): <100 KBE/ml | Ergebnis der Reisolierung (in KBE/ml) (E.coli [8]; 2 h after inoculation): <100 KBE/ml | Ergebnis der Reisolierung (in KBE/ml) (E.coli [8]; 4 h after inoculation): <100 KBE/ml | Ergebnis der Reisolierung (in KBE/ml) (E.coli [8]; 6 h after inoculation): <100 KBE/ml | Ergebnis der Reisolierung (in KBE/ml) (E.coli [8]; 8 h after inoculation): <100 KBE/ml | Ergebnis der Reisolierung (in KBE/ml) (E.coli [8]; 24 h after inoculation): <100 KBE/ml | Ergebnis der Reisolierung (in KBE/ml) (E.coli [8]; 32 h after inoculation): <100 KBE/ml | Ergebnis der Reisolierung (in KBE/ml) (E.coli [8]; 48 h after inoculation): <100 KBE/ml | Ergebnis der Reisolierung (in KBE/ml) (E.coli [8]; 72 h after inoculation): <100 KBE/ml | Ergebnis der Reisolierung qualitiativ (+/-) nach Anreicherung (H.influenzae [9]; 2 h after inoculation): - | Ergebnis der Reisolierung qualitiativ (+/-) nach Anreicherung (H.influenzae [9]; 4 h after inoculation): - | Ergebnis der Reisolierung qualitiativ (+/-) nach Anreicherung (H.influenzae [9]; 6 h after inoculation): - | Ergebnis der Reisolierung qualitiativ (+/-) nach Anreicherung (H.influenzae [9]; 8 h after inoculation): - | Ergebnis der Reisolierung qualitiativ (+/-) nach Anreicherung (H.influenzae [9]; 24 h after inoculation): - | Ergebnis der Reisolierung qualitiativ (+/-) nach Anreicherung (H.influenzae [9]; 32 h after inoculation): - | Ergebnis der Reisolierung qualitiativ (+/-) nach Anreicherung (H.influenzae [9]; 48 h after inoculation): - | Ergebnis der Reisolierung qualitiativ (+/-) nach Anreicherung (H.influenzae [9]; 72 h after inoculation): - | Ergebnis der Reisolierung qualitiativ (+/-) nach Anreicherung (P.aeruginosa [10]; 2 h after inoculation): - | Ergebnis der Reisolierung qualitiativ (+/-) nach Anreicherung (P.aeruginosa [10]; 4 h after inoculation): + | Ergebnis der Reisolierung qualitiativ (+/-) nach Anreicherung (P.aeruginosa [10]; 6 h after inoculation): - | Ergebnis der Reisolierung qualitiativ (+/-) nach Anreicherung (P.aeruginosa [10]; 8 h after inoculation): - | Ergebnis der Reisolierung qualitiativ (+/-) nach Anreicherung (P.aeruginosa [10]; 24 h after inoculation): - | Ergebnis der Reisolierung qualitiativ (+/-) nach Anreicherung (P.aeruginosa [10]; 32 h after inoculation): - | Ergebnis der Reisolierung qualitiativ (+/-) nach Anreicherung (P.aeruginosa [10]; 48 h after inoculation): - | Ergebnis der Reisolierung qualitiativ (+/-) nach Anreicherung (P.aeruginosa [10]; 72 h after inoculation): -
